From PubChem BioAssay AID1259407 (Chemical Carcinogenesis Research Information System (CCRIS), 2018)
Activity calls are given as the source filed them. The rule behind the calls is not given here.

System: CCRIS mutagenicity, Ames/micronucleus/aberration tests
Assay: CCRIS mutagenicity studies
[1] = Test System: AMES SALMONELLA TYPHIMURIUM, Strain/Indicator: TA98, Metabolic Activation: NONE, Method: PREINCUBATION
[2] = Test System: AMES SALMONELLA TYPHIMURIUM, Strain/Indicator: TA100, Metabolic Activation: NONE, Method: PREINCUBATION
[3] = Test System: AMES SALMONELLA TYPHIMURIUM, Strain/Indicator: TA98, Metabolic Activation: NONE, Method: STANDARD PLATE
[4] = Test System: AMES SALMONELLA TYPHIMURIUM, Strain/Indicator: TA98, Metabolic Activation: RAT, LIVER, S-9, AROCLOR 1254, Method: STANDARD PLATE
[5] = Test System: AMES SALMONELLA TYPHIMURIUM, Strain/Indicator: TA100, Metabolic Activation: NONE, Method: STANDARD PLATE
[6] = Test System: AMES SALMONELLA TYPHIMURIUM, Strain/Indicator: TA100, Metabolic Activation: RAT, LIVER, S-9, AROCLOR 1254, Method: STANDARD PLATE
[7] = Test System: AMES SALMONELLA TYPHIMURIUM, Strain/Indicator: TA102, Metabolic Activation: NONE, Method: STANDARD PLATE
[8] = Test System: AMES SALMONELLA TYPHIMURIUM, Strain/Indicator: TA102, Metabolic Activation: RAT, LIVER, S-9, AROCLOR 1254, Method: STANDARD PLATE

CC(C)(C)c1cc(/C=C/c2cc(C(C)(C)C)c(O)c(C(C)(C)C)c2)cc(C(C)(C)C)c1O
mutagenic call [1]: inactive; negative | mutagenic call (Test System: AMES SALMONELLA TYPHIMURIUM, Strain/Indicator: TA98, Metabolic Activation: RAT, LIVER, S-9, Method: PREINCUBATION): inactive; negative | mutagenic call [2]: inactive; negative | mutagenic call (Test System: AMES SALMONELLA TYPHIMURIUM, Strain/Indicator: TA100, Metabolic Activation: RAT, LIVER, S-9, Method: PREINCUBATION): inactive; negative

Cc1nc2c(c3[nH]c4ccccc4c13)C(=O)C(N1CC1)=CC2=O
mutagenic call (Test System: AMES SALMONELLA TYPHIMURIUM, Strain/Indicator: TA97, Metabolic Activation: NONE, Method: STANDARD PLATE): active; positive | mutagenic call (Test System: AMES SALMONELLA TYPHIMURIUM, Strain/Indicator: TA97, Metabolic Activation: RAT, LIVER, S-9, AROCLOR 1254, Method: STANDARD PLATE): active; positive | mutagenic call [3]: active; positive | mutagenic call [4]: active; positive | mutagenic call [5]: active; positive | mutagenic call [6]: active; positive | mutagenic call [7]: active; positive | mutagenic call [8]: active; positive

Oc1ccc2[nH]c3ccccc3c2c1
mutagenic call (Test System: CHINESE HAMSTER OVARY, Strain/Indicator: CHO-K1-BH4 (HGPRT)/6-THIOGUANINE, Metabolic Activation: RAT, LIVER, S-9, AROCLOR (4%)): active; positive

O=[N+]([O-])c1cccc2oc3ccccc3c12
mutagenic call (Test System: AMES SALMONELLA TYPHIMURIUM, Strain/Indicator: TA98(1,8-DNP6), Metabolic Activation: NONE, Method: PREINCUBATION): inactive; negative | mutagenic call (Test System: AMES SALMONELLA TYPHIMURIUM, Strain/Indicator: TA98(1,8-DNP6), Metabolic Activation: NONE, Method: SUSPENSION): inactive; negative | mutagenic call (Test System: AMES SALMONELLA TYPHIMURIUM, Strain/Indicator: TA98(1,8-DNP6), Metabolic Activation: RAT, LIVER, S-9, PCB (5%), Method: PREINCUBATION): inactive; negative | mutagenic call (Test System: AMES SALMONELLA TYPHIMURIUM, Strain/Indicator: TA98(NR), Metabolic Activation: NONE, Method: PREINCUBATION): inactive; negative | mutagenic call (Test System: AMES SALMONELLA TYPHIMURIUM, Strain/Indicator: TA98(NR), Metabolic Activation: NONE, Method: SUSPENSION): inactive; negative | mutagenic call (Test System: AMES SALMONELLA TYPHIMURIUM, Strain/Indicator: TA98(NR), Metabolic Activation: RAT, LIVER, S-9 (10%), Method: PREINCUBATION): inactive; negative | mutagenic call (Test System: AMES SALMONELLA TYPHIMURIUM, Strain/Indicator: TA98(NR), Metabolic Activation: RAT, LIVER, S-9, 3-METHYLCHOLANTHRENE (10%), Method: PREINCUBATION): active; positive | mutagenic call (Test System: AMES SALMONELLA TYPHIMURIUM, Strain/Indicator: TA98(NR), Metabolic Activation: RAT, LIVER, S-9, BETA-NAPHTHOFLAVONE (10%), Method: PREINCUBATION): inactive; negative | mutagenic call (Test System: AMES SALMONELLA TYPHIMURIUM, Strain/Indicator: TA98(NR), Metabolic Activation: RAT, LIVER, S-9, PCB (5%), Method: PREINCUBATION): inactive; negative | mutagenic call (Test System: AMES SALMONELLA TYPHIMURIUM, Strain/Indicator: TA98(NR), Metabolic Activation: RAT, LIVER, S-9, PCB (10%), Method: PREINCUBATION): inactive; negative | mutagenic call (Test System: AMES SALMONELLA TYPHIMURIUM, Strain/Indicator: TA98(NR), Metabolic Activation: RAT, LIVER, S-9, PHENOBARBITAL (10%), Method: PREINCUBATION): inactive; negative | mutagenic call [1]: inactive; negative | mutagenic call (Test System: AMES SALMONELLA TYPHIMURIUM, Strain/Indicator: TA98, Metabolic Activation: NONE, Method: SUSPENSION): inactive; negative | mutagenic call (Test System: AMES SALMONELLA TYPHIMURIUM, Strain/Indicator: TA98, Metabolic Activation: RAT, LIVER, S-9, PCB (5%), Method: PREINCUBATION): inactive; negative | mutagenic call (Test System: AMES SALMONELLA TYPHIMURIUM, Strain/Indicator: TA98, Metabolic Activation: RAT, LIVER, S-9, PCB, Method: SUSPENSION): inactive; negative | mutagenic call [2]: inactive; negative | mutagenic call (Test System: AMES SALMONELLA TYPHIMURIUM, Strain/Indicator: TA100, Metabolic Activation: NONE, Method: SUSPENSION): inactive; negative | mutagenic call (Test System: AMES SALMONELLA TYPHIMURIUM, Strain/Indicator: TA100, Metabolic Activation: RAT, LIVER, S-9, PCB (5%), Method: PREINCUBATION): inactive; negative | mutagenic call (Test System: AMES SALMONELLA TYPHIMURIUM, Strain/Indicator: TA100, Metabolic Activation: RAT, LIVER, S-9, PCB, Method: SUSPENSION): inactive; negative

CC(C)(C)CNC(=O)C=Cc1ccc([N+](=O)[O-])o1
mutagenic call [1]: active; positive

c1ccc2c(c1)ccc1ccc3sccc3c12
mutagenic call (Test System: Ames Salmonella typhimurium, Strain/Indicator: TA100, Metabolic Activation: None, Method: Plate incorporation): active; positive | mutagenic call (Test System: Ames Salmonella typhimurium, Strain/Indicator: TA104, Metabolic Activation: None, Method: Plate incorporation): inactive; negative

Cc1ccc(C)c(C)c1
mutagenic call (Test System: AMES SALMONELLA TYPHIMURIUM, Strain/Indicator: TA97A, Metabolic Activation: NONE, Method: STANDARD PLATE): inactive; negative | mutagenic call (Test System: AMES SALMONELLA TYPHIMURIUM, Strain/Indicator: TA97A, Metabolic Activation: RAT, LIVER, S-9, AROCLOR 1254, Method: STANDARD PLATE): inactive; negative | mutagenic call [3]: inactive; negative | mutagenic call [4]: inactive; negative | mutagenic call [5]: inactive; negative | mutagenic call [6]: inactive; negative | mutagenic call [7]: inactive; negative | mutagenic call [8]: inactive; negative

CC(C)(c1ccc(O)cc1)c1ccc(O)cc1 (tested in a mixture with another compound)
mutagenic call (End Point: IN VITRO CHROMOSOMAL ABERRATIONS, Test System: CHL CELLS, Metabolic Activation: NONE): active; positive (structural changes) | mutagenic call (End Point: IN VITRO CHROMOSOMAL ABERRATIONS, Test System: CHL CELLS, Metabolic Activation: RAT, LIVER, S-9, SODIUM PHENOBARBITAL AND 5,6-BENZOFLAVONE): inactive; negative; authors report equivocal results for structural changes at 0.63 and 1.

CC1(C)CCC[C@]2(C)[C@H]3CC=C(C=O)[C@@H](C=O)[C@]3(C)CC[C@@H]12
mutagenic call [3]: inactive; negative | mutagenic call [5]: inactive; negative | mutagenic call (Test System: AMES SALMONELLA TYPHIMURIUM, Strain/Indicator: TA2637, Metabolic Activation: NONE, Method: STANDARD PLATE): inactive; negative

Cc1cccc2cc3ccccc3cc12
mutagenic call [3]: inactive; negative | mutagenic call [4]: inactive; negative | mutagenic call [5]: inactive; negative | mutagenic call [6]: inactive; negative

O=C(Nc1ccccc1)C1CO1 (stereo not drawn)
mutagenic call (Test System: AMES SALMONELLA TYPHIMURIUM, Strain/Indicator: TA100, Metabolic Activation: MOUSE, LIVER, S-9, AROCLOR 1254, Method: STANDARD PLATE): active; positive | mutagenic call [5]: active; positive

C[C@H](CCC(=O)O)[C@H]1CC[C@H]2[C@@H]3CC[C@@H]4C[C@@H](O)CC[C@]4(C)[C@H]3CC(=O)[C@]12C
mutagenic call (Test System: AMES SALMONELLA TYPHIMURIUM, Strain/Indicator: TA98, Metabolic Activation: NONE, Method: FLUCTUATION TEST): inactive; negative | mutagenic call [1]: inactive; negative | mutagenic call (Test System: AMES SALMONELLA TYPHIMURIUM, Strain/Indicator: TA98, Metabolic Activation: RAT, LIVER, S-9, PCB, Method: PREINCUBATION): inactive; negative | mutagenic call (Test System: AMES SALMONELLA TYPHIMURIUM, Strain/Indicator: TA100, Metabolic Activation: NONE, Method: FLUCTUATION TEST): inactive; negative
